Consider nine compounds from BindingDB's records for doi:10.1016/j.bmcl.2009.12.085 (Bristol-Myers Squibb Pharmaceutical Research and Development, 2010).

Some results are limits rather than exact numbers.

The target of this assay is Potassium voltage-gated channel subfamily A member 5 (Homo sapiens, UniProt P22460). The experiment in a line: Inhibition of human Kv1.5 channel expressed in mouse L929 cells.
Potassium voltage-gated channel subfamily A member 5, sequence (P22460 whole entry): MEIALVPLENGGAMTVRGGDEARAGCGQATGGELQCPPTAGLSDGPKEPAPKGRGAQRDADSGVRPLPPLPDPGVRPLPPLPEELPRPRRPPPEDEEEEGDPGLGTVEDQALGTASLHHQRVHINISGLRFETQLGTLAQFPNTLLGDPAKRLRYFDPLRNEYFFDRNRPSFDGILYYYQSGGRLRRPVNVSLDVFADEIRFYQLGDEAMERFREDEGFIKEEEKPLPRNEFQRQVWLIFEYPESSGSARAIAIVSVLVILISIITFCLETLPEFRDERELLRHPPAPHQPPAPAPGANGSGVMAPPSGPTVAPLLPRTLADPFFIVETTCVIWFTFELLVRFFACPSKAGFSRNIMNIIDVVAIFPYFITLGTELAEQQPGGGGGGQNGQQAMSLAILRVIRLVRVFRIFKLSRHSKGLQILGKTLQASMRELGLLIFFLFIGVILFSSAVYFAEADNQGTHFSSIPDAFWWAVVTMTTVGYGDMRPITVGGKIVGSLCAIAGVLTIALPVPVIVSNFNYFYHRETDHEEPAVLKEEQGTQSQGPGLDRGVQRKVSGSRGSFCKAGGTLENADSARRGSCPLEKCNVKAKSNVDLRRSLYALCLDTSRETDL
As a reminder, the IC50 is the point on the concentration scale where inhibition reaches its midpoint. High values mean weaker potency in that assay, low ones greater potency in that assay. In turn, `CC1=Nc2ccnn2C(c2ccc(Cl)c(Cl)c2)C1C(=O)N1CCC[C@H]1c1n[nH]c(=O)n1C` (stereo partly drawn) [3-((2S)-1-(7-(3,4-dichlorophenyl)-5-methyl-4,7-dihydropyrazolo[1,5-a]pyrimidine-6-carbonyl)pyrrolidin-2-yl)-4-methyl-1H-1,2,4-triazol-5(4H)-one] displayed an IC50 of over 1000 nM.
Then `COC(=O)[C@@H]1CCCN1C(=O)C1C(C)=Nc2ccnn2C1c1ccc(Cl)c(Cl)c1` (stereo partly drawn) [(2S)-methyl 1-(7-(3,4-dichlorophenyl)-5-methyl-4,7-dihydropyrazolo[1,5-a]pyrimidine-6-carbonyl)pyrrolidine-2-carboxylate], with 150 nM; and `CC1=Nc2ccnn2C(c2ccc(Cl)c(Cl)c2)C1C(=O)N1CCCC1c1ccc(F)cc1` (centres undefined) [(7-(3,4-dichlorophenyl)-5-methyl-4,7-dihydropyrazolo[1,5-a]pyrimidin-6-yl)(2-(4-fluorophenyl)pyrrolidin-1-yl)methanone], with 70 nM; and `CC1=Nc2ccnn2C(c2ccc(Cl)c(Cl)c2)C1C(=O)N1CCCC1c1ccccn1` (centres undefined) [(7-(3,4-dichlorophenyl)-5-methyl-4,7-dihydropyrazolo[1,5-a]pyrimidin-6-yl)(2-(pyridin-2-yl)pyrrolidin-1-yl)methanone], with 660 nM.
Then `CC1=Nc2ccnn2C(c2ccc(Cl)c(Cl)c2)C1C(=O)N1CCCC1c1cccnc1` (centres undefined) [(7-(3,4-dichlorophenyl)-5-methyl-4,7-dihydropyrazolo[1,5-a]pyrimidin-6-yl)(2-(pyridin-3-yl)pyrrolidin-1-yl)methanone], with over 1000 nM; and `CC1=Nc2ccnn2C(c2ccc(Cl)c(Cl)c2)C1C(=O)N1CCCC1c1ccccc1` (centres undefined) [(7-(3,4-dichlorophenyl)-5-methyl-4,7-dihydropyrazolo[1,5-a]pyrimidin-6-yl)(2-phenylpyrrolidin-1-yl)methanone], with 150 nM.
Then `CC1=Nc2ccnn2C(c2ccc(Cl)c(Cl)c2)C1C(=O)N1CCC[C@H]1c1nnn[nH]1` (stereo partly drawn) [((S)-2-(1H-tetrazol-5-yl)pyrrolidin-1-yl)(7-(3,4-dichlorophenyl)-5-methyl-4,7-dihydropyrazolo[1,5-a]pyrimidin-6-yl)methanone], with over 1000 nM.
With `CC1=Nc2ccnn2C(c2ccc(Cl)c(Cl)c2)C1C(=O)N1CCC[C@H]1c1nnc[nH]1` (stereo partly drawn) [((S)-2-(4H-1,2,4-triazol-3-yl)pyrrolidin-1-yl)(7-(3,4-dichlorophenyl)-5-methyl-4,7-dihydropyrazolo[1,5-a]pyrimidin-6-yl)methanone], the IC50 is over 1000 nM.
Then `CC1=Nc2ccnn2C(c2ccc(Cl)c(Cl)c2)C1C(=O)N1CCC[C@H]1c1nnc(N)s1` (stereo partly drawn) [((S)-2-(5-amino-1,3,4-thiadiazol-2-yl)pyrrolidin-1-yl)(7-(3,4-dichlorophenyl)-5-methyl-4,7-dihydropyrazolo[1,5-a]pyrimidin-6-yl)methanone], with over 1000 nM.
